Structures are written as SMILES.

Data on 15 molecules can be found in article PMC6983066, “Real-Time Optical Detection of Isoleucine in Living Cells through a Genetically-Encoded Nanosensor” (Sensors (Basel, Switzerland), 2019).

The subject of assay [1] is T1, GEII nanosensor (ECFP-LivJ-Venus).
T1 construct: His-tag (from pRSET-B); made in house; host or cells: E. coli BL21 (DE3)
Description: Specificity analysis of purified GEII nanosensor with amino acids and metal ions (Venus/ECFP FRET ratio, microplate). The format is biochemical, E. coli. To be noted: 1 and 10 mM amino acid, purified sensor. On the procedure: The FRET ratio analysis was performed in 96-well microplate reader using the excitation filter/slits (430/20 nm) and emission filters/slits for ECFP (485/20 nm), and Venus (535/25 nm) respectively. Furthermore, the sensitivity of sensor protein was tested against 10 mM of different metals ions present in the human body i.e., NaCl, CaCl2, MgCl2, and KCl.

The test system of another assay is E. coli BL21(DE3) cells. Nature of the assay: Monitoring of isoleucine in living bacterial cells expressing GEII. The format is cell-based. To be noted: 10 mM amino acid, 45 min. On the procedure:
For monitoring of isoleucine in bacterial cells, the E. coli BL21(DE3) containing pRSET-B-GEII were incubated for 48 h at 21 °C. For appropriate protein folding of nanosensor protein, the culture was stored in 4 °C overnight. The bacterial cells were centrifuged and the resultant pellet of the bacterial cells was resuspended in MOPS buffer (20 mM). Twenty microliter 10 mM isoleucine was added to 180 µL resuspended bacterial cell in the wells of microplate. The ratio of fluorescence emission intensities of Venus/ECFP was recorded for 45 min.

The target in the next assay is LivJ. To be noted: LivJ binding protein; no reference given; cited from earlier work.

As to `C[C@H](N)C(=O)O` [Alanine], the “change in FRET ratio of GEII with amino acid” value (“change in FRET ratio of GEII” below) in assay [1] was “minimal”.
`N[C@@H](CS)C(=O)O` [Cysteine]: the “change in FRET ratio of GEII” value in assay [1] is listed as “minimal”.
On to `N[C@@H](CCC(=O)O)C(=O)O` [Glutamate], for which, in assay [1], the “change in FRET ratio of GEII” value was “minimal”.
Turning to `CC[C@H](C)[C@H](N)C(=O)O` [Isoleucine], the “change in FRET ratio of GEII” value in assay [1] is “maximum”. Moreover, the “FRET ratio change of GEII in E. coli cells” value with E. coli BL21(DE3) cells is on record as “maximum FRET ratio change”. Further, at LivJ, the Kd is 900 nM.
Regarding `CC(C)C[C@H](N)C(=O)O` [Leucine], the “change in FRET ratio of GEII” value in assay [1] was “only mildly”. In addition, the Kd on LivJ is 2300 nM.
`CSCC[C@H](N)C(=O)O` [Methionine]: the “change in FRET ratio of GEII” value in assay [1] was “minimal”.
Still for that read-out and setting: with `N[C@@H](CO)C(=O)O` [Serine] the entry was “minimal”.
Take `CC(C)[C@H](N)C(=O)O` [Valine]: in assay [1], the “change in FRET ratio of GEII” value was “minimal”. Besides, the equilibrium dissociation constant (Kd) on LivJ is 4000 nM.
As for `N=C(N)NCCC[C@H](N)C(=O)O` [arginine], the “change in FRET ratio of GEII” value in assay [1] was “minimal”.
Still for that read-out and setting: with `NC(=O)C[C@H](N)C(=O)O` [asparagine] the entry was “minimal”.
For `N[C@@H](CC(=O)O)C(=O)O` [aspartic acid], in assay [1], the “change in FRET ratio of GEII” value is given as “minimal”.
Same read-out and setting: with `NC(=O)CC[C@H](N)C(=O)O` [glutamine] the entry was “minimal”; with `NCC(=O)O` [glycine], “minimal”.
Turning to `N[C@@H](Cc1c[nH]cn1)C(=O)O` [histidine], the “change in FRET ratio of GEII” value in assay [1] is “minimal”.
Same read-out and setting: with `NCCCC[C@H](N)C(=O)O` [lysine] the entry was “minimal”.
